Patent US4652563A, “Vasodilators and β-adrenoceptor antagonists” (Smith Kline & French Laboratories Ltd., priority 1984, dated 1987)
Where a name gives a salt, the structure may show the parent alone. Read-outs that look alike come from different tables or passages of the source.

Assays:
[1] = Anti-hypertensive activity: fall in blood pressure in anaesthetised rats, intravenous; type: in vivo, rat; conditions: from dose response graph; for ED (40 mm Hg): Rattus norvegicus, iv, read-out: dose required to lower blood pressure by 40 mm Hg
Procedure: (§1) Compounds were dosed following dissolution in distilled water or in polyethylene glycol and dilution with 0.9% saline. The compounds were then administered intravenously. The blood pressure and heart rate were monitored directly, from a polythene cannula placed in the carotid artery. The doses required to lower blood pressure by 40 mm Hg, when administered intravenously, were obtained from a dose response graph.

[2] = Vasodilator activity: increase in blood flow in autoperfused anaesthetised rat hindquarters; type: in vivo; conditions: for ED (50% increase): Rattus norvegicus, read-out: dose required to increase hindquarters blood flow by 50%
Description: The doses required to increase hindquarters blood flow by 50% were obtained.

β1 -receptors [3] = target: T1, β1 -receptors (Felis catus, UniProt Q9TST6); experiment: β-Adrenoceptor antagonist activity: inhibition of isoprenaline-induced tachycardia in ganglion blocked anaesthetised cats; type: in vivo, cat; conditions: for ED50: cat, iv, read-out: ID50 (inhibition of isoprenaline-induced tachycardia by 50%); for ED50 / ID50 (inhibition of isoprenaline-induced tachycardia by 50%): ganglion blocked anaesthetised cats, intravenous
T1 construct: from tissue; host or cells: living anaesthetised cat (in vivo)
Description: (§2) The doses required to inhibit isoprenaline-induced tachycardia by 50% (ID50) were obtained after intravenous administration.

β1 -adrenoceptor = experiment: Overall hypotension and β1-adrenoceptor antagonism from the above data; conditions: in vivo
Procedure: as §1, §2
(§3) Furthermore they have minimal intrinsic sympathomimetic activity as shown by the absence of a tachycardia in spontaneously beating guinea pig right atria. The compound of Example 1 produced a maximal increase of approximately 10% of the maximal isoprenaline induced tachycardia in an anaesthetised ganglion blocked cat.

β1 -receptors [4] = target: T1, β1 -receptors; experiment: β-Adrenoceptor antagonist activity: inhibition of isoprenaline-induced tachycardia in ganglion blocked anaesthetised cats; type: in vivo, cat; conditions: prizidilol at doses giving a similar effect
[5] = Anti-hypertensive activity in conscious cats, oral; type: in vivo, cat; conditions: 19 μmol Kg^-1 (Example 1 base), 16 μmol Kg^-1 (Example 4 methanesulphonate); for changes in heart rate: at least 2 hours
[6] = Intrinsic sympathomimetic activity (tachycardia) in anaesthetised ganglion blocked cat; type: in vivo
Description: as §3

[7] = Hypotension and aortic blood flow in anaesthetised cats; type: in vivo, cat; conditions: 4 μmol Kg^-1 (base) and 7 μmol Kg^-1 (hydrochloride)
[8] = Blood pressure in conscious spontaneously hypertensive rats, intravenous and oral; type: in vivo, spontaneously hypertensive rat
[9] = Observation of toxic effects in conscious spontaneously hypertensive rats, oral; type: in vivo, spontaneously hypertensive rat; conditions: doses up to a maximum of 102 μmol Kg^-1
[10] = tested on: isolated intact guinea pig trachea; experiment: Bronchodilatation: spontaneous tone of isolated intact guinea pig trachea; conditions: bath concentration 1 μg ml^-1
Procedure: The compound of Example 4 (as methanesulphonate) (at a bath concentration of 1 μg ml^-1) caused a 50% reduction in the spontaneous tone of an isolated intact guinea pig trachea, as assessed by the method of Coleman R. A. and Farmer J. B. (1971), J. Pharm.

[11] = iv, administration intravenously
[12] = administration intra-arterially

T1 sequence (Q9TST6 whole entry): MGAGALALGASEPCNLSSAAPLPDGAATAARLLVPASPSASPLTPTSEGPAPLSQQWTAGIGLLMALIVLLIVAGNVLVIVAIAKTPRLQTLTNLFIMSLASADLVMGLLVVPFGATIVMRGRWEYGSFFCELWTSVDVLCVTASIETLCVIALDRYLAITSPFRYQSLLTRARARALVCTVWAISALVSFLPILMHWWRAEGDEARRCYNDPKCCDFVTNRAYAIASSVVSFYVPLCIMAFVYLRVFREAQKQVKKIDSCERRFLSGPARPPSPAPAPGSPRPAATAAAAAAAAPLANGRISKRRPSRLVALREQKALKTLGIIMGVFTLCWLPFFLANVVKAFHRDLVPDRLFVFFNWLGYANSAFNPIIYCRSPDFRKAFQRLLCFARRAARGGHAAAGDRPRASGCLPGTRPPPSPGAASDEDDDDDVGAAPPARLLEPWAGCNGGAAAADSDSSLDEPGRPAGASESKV

CCCc1cc(CCOCC2CC2)ccc1OCC(O)CNCCC(=O)Nc1ccc(C2=NNC(=O)CC2C)cc1 (centres unmarked) [Example 2, 6-[4-[3-[2-Hydroxy-3-[2-n-propyl-4-(2-(cyclopropylmethoxy)ethyl)phenoxy]propylamino]propionamido]phenyl]-5-methyl-4,5-dihydro-3(2H)-pyridazinone]
ED (40 mm Hg) [1]: 3.15 µmol/kg
ED (50% increase) [2, 11]: 1.43 µmol/kg
ED50 (β1 -receptors [3]): 8.63 µmol/kg

CC1CC(=O)NN=C1c1ccc(NC(=O)CCNC[C@H](O)COc2ccc(CCOCC3CC3)cc2)cc1 (single isomer, unassigned; (-)) [Example 11, (-)-6-[4-[3-[2-(-)-Hydroxy-3-[4-(2-(cyclopropylmethoxy)ethyl)phenoxy]propylamino]propionamido]phenyl]-5-methyl-4,5-dihydro-3(2H)-pyridazione[(-) (-)isomer]]
prolonged hypotension and β1-adrenoceptor antagonism over the same dose range (β1 -adrenoceptor): cause prolonged hypotension and β1 -adrenoceptor antagonism over the same dose range
ED (40 mm Hg) [1]: 2.1 µmol/kg
ED (50% increase) [2, 12]: 1.1 µmol/kg
ED50 (β1 -receptors [3]): 1.6 µmol/kg

CC1CC(=O)NN=C1c1ccc(NC(=O)CCNCC(O)COc2ccc(CCOCC3CC3)cc2)cc1 (centres unmarked) [Example 1, 6-[4-[3-[2-Hydroxy-3-[4-(2-(cyclopropylmethoxy)ethyl)phenoxy]propylamino]propionamido]phenyl]-5-methyl-4,5-dihydro-3(2H)-pyridazinone]
duration of inhibition of isoprenaline-induced tachycardia (β1 -receptors [4]): prolonged duration of inhibition
prolonged hypotension and β1-adrenoceptor antagonism over the same dose range (β1 -adrenoceptor): cause prolonged hypotension and β1 -adrenoceptor antagonism over the same dose range
period of blood pressure reduction with minimal heart rate change [5]: at least 2 hours
reductions in blood pressure [5]: reductions in blood pressure
changes in heart rate [5]: minimal changes in heart rate
maximal increase, of the maximal isoprenaline induced tachycardia [6]: approximately 10%
dose required to lower blood pressure by 40 mm Hg ([1]; as base): 8.0 µmol/kg
dose required to increase hindquarters blood flow by 50% ([2]; administration intravenously, as base): 11.5 µmol/kg
ID50 (inhibition of isoprenaline-induced tachycardia by 50%) (β1 -receptors [3]; as base): 1.9 µmol/kg
selectivity for β1-receptors (β1 -receptors [3]; in vivo): evidence that this compound has selectivity for β1 -receptors
changes in aortic blood flow [7]: minimal changes in aortic blood flow
hypotension [7]: significant dose-dependent hypotension

CC(C)(C)NCC(O)COc1ccccc1-c1ccc(NN)nn1 (centres unmarked) [Prizidilol, reference compound]
duration of inhibition of isoprenaline-induced tachycardia (β1 -receptors [4]): short duration of inhibition
ED (40 mm Hg) [1]: 14 µmol/kg
ED (50% increase) [2, 12]: 10 µmol/kg

CC1CC(=O)NN=C1c1ccc(NC(=O)CCNCC(O)COc2ccc(CCOCC3CC3)cc2)cc1 (centres unmarked) [Example 4, 6-[4-[3-[2-Hydroxy-3-[4-(2-(cyclopropylmethoxy)ethyl)phenoxy]propylamino]propionamido]phenyl]-5-methyl-4,5-dihydro-3(2H)-pyridazinone]
duration of prolonged, significant reductions in blood pressure (up to and including, post dose) ([8]; intravenous, 3 to 13 μmol Kg^-1): 5 h
fall in blood pressure ([8]; intravenous, three dose levels from 3 to 13 μmol Kg^-1): significant fails in blood pressure
duration of prolonged, significant reductions in blood pressure (up to and including, post dose) ([8]; oral, 25 to 102 μmol Kg^-1): 5 h
hypotensive effect ([8]; oral, three doses from 25 to 102 μmol Kg^-1): significant hypotensive effect
toxic effects [9]: no toxic effects were observed
prolonged hypotension and β1-adrenoceptor antagonism over the same dose range (β1 -adrenoceptor): cause prolonged hypotension and β1 -adrenoceptor antagonism over the same dose range
period of blood pressure reduction with minimal heart rate change [5]: at least 2 hours
reductions in blood pressure [5]: reductions in blood pressure
changes in heart rate [5]: minimal changes in heart rate
inhibition of the reduction in tracheal tone by propanolol [10]: not inhibited by propanolol
reduction in spontaneous tone of trachea [10]: 50%
dose required to lower blood pressure by 40 mm Hg ([1]; as methanesulphonate): 2.8 µmol/kg
ED (50% increase) [2, 12]: 1.7 µmol/kg
duration of vasodilatation ([2]; autoperfused anaesthetised rat hindquarters): prolonged duration of vasodilatation
ID50 (inhibition of isoprenaline-induced tachycardia by 50%) (β1 -receptors [3]; as methanesulphonate): 1.4 µmol/kg

CC1CC(=O)NN=C1c1ccc(NC(=O)CCNCC(O)COc2ccc(CCOCC3CC3)cc2)cc1 (centres unmarked) [Example 1 as hydrochloride, 6-[4-[3-[2-Hydroxy-3-[4-(2-(cyclopropylmethoxy)ethyl)phenoxy]propylamino]propionamido]phenyl]-5-methyl-4,5-dihydro-3(2H)-pyridazinone]
prolonged hypotension and β1-adrenoceptor antagonism over the same dose range (β1 -adrenoceptor): cause prolonged hypotension and β1 -adrenoceptor antagonism over the same dose range
dose required to lower blood pressure by 40 mm Hg ([1]; listed as 1, as hydrochloride): 4.0 µmol/kg
dose required to increase hindquarters blood flow by 50% ([2]; administration intravenously, listed as 1, as hydrochloride): 4.0 µmol/kg
ID50 (inhibition of isoprenaline-induced tachycardia by 50%) (β1 -receptors [3]; listed as 1, as hydrochloride): 4.3 µmol/kg

Cc1cc(CCOCC2CC2)ccc1OCC(O)CNCCC(=O)Nc1ccc(C2=NNC(=O)CC2C)cc1 (centres unmarked) [Example 3, 6-[4-[3-[2-Hydroxy-3-[2-methyl-4-(2-(cyclopropylmethoxy)ethyl)phenoxy]propylamino]propionamido]phenyl]-5-methyl-4,5-dihydro-3(2H)-pyridazinone]
ED (40 mm Hg) [1]: 2.95 µmol/kg
ED (50% increase) [2, 11]: 1.95 µmol/kg
ED50 (β1 -receptors [3]): 7.84 µmol/kg
